Laboratory results taken from patent US10294202B2, “Pyrrolidinones as herbicides” (FMC Corporation, priority 2013, dated 2019).

How the values were obtained:
crabgrass, large = test: Test A pre-/postemergence herbicide test; type: in vivo, Digitaria sanguinalis
Method in brief: (§1)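 Formulated compound (non-phytotoxic solvent, surfactant) sprayed pre- onto soil of seeded loam/sand pots or post- onto seedlings at 1–2 leaves; ~10 d greenhouse; 0–100 visual control rating versus untreated.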

morningglory [1] = test: Test A pre-/postemergence herbicide test; type: in vivo, Ipomoea spp.
Method in brief: as §1

wheat (winter wheat) = test: Test C pre-/postemergence herbicide test; type: in vivo, Triticum aestivum
Method in brief: (§2)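 Compound solutions contained surfactant in a non-phytotoxic solvent. These were sprayed onto pots of loam/sand sown with seeds, and onto young plants (2 to 18 cm, 1- to 4-leaf) in sphagnum peat–vermiculite mix. Visual injury scores (0 none, 100 complete control) were recorded after 13 to 15 days.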

johnsongrass = test: Test C pre-/postemergence herbicide test; type: in vivo, Sorghum halepense
Method in brief: as §2

morningglory [2] = test: Test C pre-/postemergence herbicide test; type: in vivo, Ipomoea coccinea
Method in brief: as §2

waterhemp = test: Test C pre-/postemergence herbicide test; type: in vivo, Amaranthus rudis
Method in brief: as §2

velvetleaf = test: Test C pre-/postemergence herbicide test; type: in vivo, Abutilon theophrasti
Method in brief: as §2

[3] = Postemergence, 125 g ai/ha, 0 to 100 scale, 0 no effect, 100 complete control
[4] = Postemergence, 500 g ai/ha, 0 to 100 scale (0 no effect, 100 complete control)
[5] = Preemergence, 125 g ai/ha, visual rating on 0 to 100 scale (0 no effect, 100 complete control)
[6] = preemergence, 500 g ai/ha, 0 to 100 scale
[7] = Preemergence, 31 g ai/ha, scale 0 to 100, 0 is no effect and 100 is complete control
[8] = Preemergence, 62 g ai/ha, scale 0 to 100
[9] = Preemergence, 125 g ai/ha, scale 0 to 100 (0 no effect, 100 complete control)
[10] = 125 g ai/ha, visual rating, 0 to 100 scale, 0 no effect, 100 complete control, approximately 10 days, preemergence
[11] = Postemergence, 125 g ai/ha, 0 to 100 scale, 0 is no effect, 100 is complete control
[12] = preemergence, 500 g ai/ha, 0 to 100 scale, 0 is no effect and 100 is complete control
[13] = Preemergence, 62 g ai/ha, scale 0 to 100 (0 no effect, 100 complete control)
[14] = Preemergence, 16 g ai/ha, scale 0 to 100
[15] = Preemergence, 125 g ai/ha, 0 to 100 scale where 0 is no effect and 100 is complete control
[16] = Postemergence, 31 g ai/ha, scale 0 to 100 (0 no effect, 100 complete control)
[17] = Postemergence, 62 g ai/ha, scale 0 (no effect) to 100 (complete control)
[18] = Postemergence, 125 g ai/ha, scale 0 to 100 (0 no effect, 100 complete control)
[19] = Postemergence, 250 g ai/ha, scale 0 to 100 (0 no effect, 100 complete control)
[20] = Preemergence, 125 g ai/ha, scale 0 to 100

O=C1NCC(c2ccc(F)c(C(F)(F)F)c2)C1C(=O)Nc1ccccc1C(F)(F)F (racemic) [Compound 78]
Plant response rating, Crabgrass, Large (crabgrass, large; [3]): 70
Plant response rating, Crabgrass, Large (crabgrass, large; [4]): 80
Crabgrass, Large plant response rating (crabgrass, large; [5]): 90
Plant response rating, Crabgrass, Large (crabgrass, large; [6]): 90
Plant response rating, Morningglory (morningglory [1]; [3]): 0
Plant response rating, Morningglory (morningglory [1]; [4]): 0
Morningglory plant response rating (morningglory [1]; [5]): 0
Plant response rating, Morningglory (morningglory [1]; [6]): 0
Wheat plant response rating (wheat (winter wheat); [7]): 10
Plant response rating, Wheat (wheat (winter wheat); [8]): 30
Plant response rating, Wheat (wheat (winter wheat); [9]): 60
Plant response rating (scale of 0 to 100), Wheat (wheat (winter wheat); Preemergence, 250 g ai/ha): 90
Johnsongrass plant response rating (johnsongrass; [7]): 0
Plant response rating, Johnsongrass (johnsongrass; [8]): 0
Plant response rating, Johnsongrass (johnsongrass; [9]): 15
Plant response rating (scale of 0 to 100), Johnsongrass (johnsongrass; Preemergence, 250 g ai/ha): 60
Morningglory plant response rating (morningglory [2]; [7]): 0
Plant response rating, Morningglory (morningglory [2]; [8]): 0
Plant response rating, Morningglory (morningglory [2]; [9]): 0
Plant response rating (scale of 0 to 100), Morningglory (morningglory [2]; Preemergence, 250 g ai/ha): 0
Waterhemp plant response rating (waterhemp; [7]): 50
Plant response rating, Waterhemp (waterhemp; [8]): 75
Plant response rating, Waterhemp (waterhemp; [9]): 85
Plant response rating (scale of 0 to 100), Waterhemp (waterhemp; Preemergence, 250 g ai/ha): 85
Velvetleaf plant response rating (velvetleaf; [7]): 15
Plant response rating, Velvetleaf (velvetleaf; [8]): 15
Plant response rating, Velvetleaf (velvetleaf; [9]): 20
Plant response rating (scale of 0 to 100), Velvetleaf (velvetleaf; Preemergence, 250 g ai/ha): 20

O=C1NCC(c2cccc(C(F)(F)F)c2)C1C(=O)Nc1ccccc1Cl (racemic) [Compound 189]
Plant response rating, Crabgrass, Large (crabgrass, large; [10]): 90
Plant response rating, Crabgrass, Large (crabgrass, large; [11]): 60
Crabgrass, Large plant response rating (0 to 100 scale, 0 is no effect, 100 is complete control) (crabgrass, large; Postemergence, 500 g ai/ha): 80
Plant response rating, Crabgrass, Large (crabgrass, large; [12]): 90
Plant response rating, Morningglory (morningglory [1]; [10]): 0
Plant response rating, Morningglory (morningglory [1]; [11]): 0
Morningglory plant response rating (0 to 100 scale, 0 is no effect, 100 is complete control) (morningglory [1]; Postemergence, 500 g ai/ha): 0
Plant response rating, Morningglory (morningglory [1]; [12]): 0
Wheat plant response rating (wheat (winter wheat); [7]): 0
Wheat plant response rating (wheat (winter wheat); [13]): 0
Plant response rating, Wheat (wheat (winter wheat); [9]): 0
Plant response rating, Wheat (wheat (winter wheat); [14]): 0
Johnsongrass plant response rating (johnsongrass; [7]): 0
Johnsongrass plant response rating (johnsongrass; [13]): 0
Plant response rating, Johnsongrass (johnsongrass; [9]): 15
Plant response rating, Johnsongrass (johnsongrass; [14]): 0
Morningglory plant response rating (morningglory [2]; [7]): 0
Morningglory plant response rating (morningglory [2]; [13]): 0
Plant response rating, Morningglory (morningglory [2]; [9]): 0
Plant response rating, Morningglory (morningglory [2]; [14]): 0
Waterhemp plant response rating (waterhemp; [7]): 0
Waterhemp plant response rating (waterhemp; [13]): 5
Plant response rating, Waterhemp (waterhemp; [9]): 0
Plant response rating, Waterhemp (waterhemp; [14]): 0
Velvetleaf plant response rating (velvetleaf; [7]): 0
Velvetleaf plant response rating (velvetleaf; [13]): 0
Plant response rating, Velvetleaf (velvetleaf; [9]): 0
Plant response rating, Velvetleaf (velvetleaf; [14]): 0

O=C1NCC(c2ccc(C(F)(F)F)c(F)c2)C1C(=O)Nc1ccccc1F (racemic) [Compound 246]
Plant response rating, Crabgrass, Large (crabgrass, large; [11]): 50
Plant response rating, Crabgrass, Large (crabgrass, large; [4]): 60
Plant response rating, Crabgrass, Large (crabgrass, large; [15]): 90
Plant response rating, Crabgrass, Large (crabgrass, large; [12]): 90
Plant response rating, Morningglory (morningglory [1]; [11]): 0
Plant response rating, Morningglory (morningglory [1]; [4]): 0
Plant response rating, Morningglory (morningglory [1]; [15]): 0
Plant response rating, Morningglory (morningglory [1]; [12]): 0
Wheat plant response rating (wheat (winter wheat); [7]): 0
Wheat plant response rating (wheat (winter wheat); [13]): 0
Plant response rating, Wheat (wheat (winter wheat); [9]): 10
Plant response rating (scale of 0 to 100), Wheat (wheat (winter wheat); Preemergence, 250 g ai/ha): 30
Johnsongrass plant response rating (johnsongrass; [7]): 0
Johnsongrass plant response rating (johnsongrass; [13]): 20
Plant response rating, Johnsongrass (johnsongrass; [9]): 0
Plant response rating (scale of 0 to 100), Johnsongrass (johnsongrass; Preemergence, 250 g ai/ha): 5
Morningglory plant response rating (morningglory [2]; [7]): 5
Morningglory plant response rating (morningglory [2]; [13]): 5
Plant response rating, Morningglory (morningglory [2]; [9]): 10
Plant response rating (scale of 0 to 100), Morningglory (morningglory [2]; Preemergence, 250 g ai/ha): 5
Waterhemp plant response rating (waterhemp; [7]): 100
Waterhemp plant response rating (waterhemp; [13]): 98
Plant response rating, Waterhemp (waterhemp; [9]): 90
Plant response rating (scale of 0 to 100), Waterhemp (waterhemp; Preemergence, 250 g ai/ha): 90
Velvetleaf plant response rating (velvetleaf; [7]): 0
Velvetleaf plant response rating (velvetleaf; [13]): 0
Plant response rating, Velvetleaf (velvetleaf; [9]): 0
Plant response rating (scale of 0 to 100), Velvetleaf (velvetleaf; Preemergence, 250 g ai/ha): 0

O=C1NCC(c2ccc(C(F)(F)F)c(F)c2)C1C(=O)Nc1cccc(F)c1F (racemic) [Compound 247]
Plant response rating, Crabgrass, Large (crabgrass, large; [11]): 50
Plant response rating, Crabgrass, Large (crabgrass, large; [4]): 70
Plant response rating, Crabgrass, Large (crabgrass, large; [15]): 90
Plant response rating, Crabgrass, Large (crabgrass, large; [12]): 90
Plant response rating, Morningglory (morningglory [1]; [11]): 0
Plant response rating, Morningglory (morningglory [1]; [4]): 0
Plant response rating, Morningglory (morningglory [1]; [15]): 0
Plant response rating, Morningglory (morningglory [1]; [12]): 0
Wheat plant response rating (wheat (winter wheat); [7]): 0
Wheat plant response rating (wheat (winter wheat); [13]): 0
Plant response rating (scale of 0 to 100), Wheat (wheat (winter wheat); Preemergence, 250 g ai/ha): 0
Johnsongrass plant response rating (johnsongrass; [7]): 0
Johnsongrass plant response rating (johnsongrass; [13]): 0
Plant response rating, Johnsongrass (johnsongrass; [9]): 10
Plant response rating (scale of 0 to 100), Johnsongrass (johnsongrass; Preemergence, 250 g ai/ha): 5
Morningglory plant response rating (morningglory [2]; [7]): 0
Morningglory plant response rating (morningglory [2]; [13]): 0
Plant response rating, Morningglory (morningglory [2]; [9]): 5
Plant response rating (scale of 0 to 100), Morningglory (morningglory [2]; Preemergence, 250 g ai/ha): 20
Waterhemp plant response rating (waterhemp; [7]): 70
Waterhemp plant response rating (waterhemp; [13]): 100
Plant response rating, Waterhemp (waterhemp; [9]): 100
Plant response rating (scale of 0 to 100), Waterhemp (waterhemp; Preemergence, 250 g ai/ha): 85
Velvetleaf plant response rating (velvetleaf; [7]): 0
Velvetleaf plant response rating (velvetleaf; [13]): 20
Plant response rating, Velvetleaf (velvetleaf; [9]): 30
Plant response rating (scale of 0 to 100), Velvetleaf (velvetleaf; Preemergence, 250 g ai/ha): 25

O=C1NCC(c2ccc(C(F)(F)F)nc2)C1C(=O)Nc1ccccc1F (racemic) [Compound 262]
Plant response rating, Crabgrass, Large (crabgrass, large; [11]): 70
Plant response rating, Crabgrass, Large (crabgrass, large; [4]): 80
Plant response rating, Crabgrass, Large (crabgrass, large; [15]): 90
Plant response rating, Crabgrass, Large (crabgrass, large; [12]): 90
Plant response rating, Morningglory (morningglory [1]; [11]): 0
Plant response rating, Morningglory (morningglory [1]; [4]): 0
Plant response rating, Morningglory (morningglory [1]; [15]): 0
Plant response rating, Morningglory (morningglory [1]; [12]): 0
Wheat plant response rating (wheat (winter wheat); [7]): 0
Wheat plant response rating (wheat (winter wheat); [13]): 0
Plant response rating (scale of 0 to 100), Wheat (wheat (winter wheat); Preemergence, 250 g ai/ha): 0
Johnsongrass plant response rating (johnsongrass; [7]): 0
Johnsongrass plant response rating (johnsongrass; [13]): 0
Plant response rating, Johnsongrass (johnsongrass; [9]): 0
Plant response rating (scale of 0 to 100), Johnsongrass (johnsongrass; Preemergence, 250 g ai/ha): 0
Morningglory plant response rating (morningglory [2]; [7]): 0
Morningglory plant response rating (morningglory [2]; [13]): 0
Plant response rating, Morningglory (morningglory [2]; [9]): 10
Plant response rating (scale of 0 to 100), Morningglory (morningglory [2]; Preemergence, 250 g ai/ha): 10
Waterhemp plant response rating (waterhemp; [7]): 0
Waterhemp plant response rating (waterhemp; [13]): 50
Plant response rating, Waterhemp (waterhemp; [9]): 60
Plant response rating (scale of 0 to 100), Waterhemp (waterhemp; Preemergence, 250 g ai/ha): 50
Velvetleaf plant response rating (velvetleaf; [7]): 0
Velvetleaf plant response rating (velvetleaf; [13]): 0
Plant response rating, Velvetleaf (velvetleaf; [9]): 0
Plant response rating (scale of 0 to 100), Velvetleaf (velvetleaf; Preemergence, 250 g ai/ha): 0

O=C1NCC(c2cccc(OC(F)F)c2)C1C(=O)Nc1ccc(F)c(F)c1F (stereo not shown) [Compound 325]
Plant response rating, Wheat (wheat (winter wheat); [16]): 0
Plant response rating, Wheat (wheat (winter wheat); [17]): 0
Plant response rating, Wheat (wheat (winter wheat); [18]): 0
Plant response rating, Wheat (wheat (winter wheat); [19]): 5
Wheat plant response rating (wheat (winter wheat); [13]): 40
Plant response rating, Wheat (wheat (winter wheat); [20]): 65
Plant response rating, Johnsongrass (johnsongrass; [16]): 0
Plant response rating, Johnsongrass (johnsongrass; [17]): 0
Plant response rating, Johnsongrass (johnsongrass; [18]): 0
Plant response rating, Johnsongrass (johnsongrass; [19]): 0
Johnsongrass plant response rating (johnsongrass; [7]): 20
Johnsongrass plant response rating (johnsongrass; [13]): 35
Plant response rating, Johnsongrass (johnsongrass; [20]): 75
Plant response rating (scale of 0 to 100), Johnsongrass (johnsongrass; Preemergence, 250 g ai/ha): 75
Plant response rating, Morningglory (morningglory [2]; [16]): 5
Plant response rating, Morningglory (morningglory [2]; [17]): 5
Plant response rating, Morningglory (morningglory [2]; [18]): 35
Plant response rating, Morningglory (morningglory [2]; [19]): 50
Morningglory plant response rating (morningglory [2]; [7]): 0
Morningglory plant response rating (morningglory [2]; [13]): 30
Plant response rating, Morningglory (morningglory [2]; [20]): 30
Plant response rating (scale of 0 to 100), Morningglory (morningglory [2]; Preemergence, 250 g ai/ha): 40
Plant response rating, Waterhemp (waterhemp; [16]): 0
Plant response rating, Waterhemp (waterhemp; [17]): 0
Plant response rating, Waterhemp (waterhemp; [18]): 25
Plant response rating, Waterhemp (waterhemp; [19]): 35
Waterhemp plant response rating (waterhemp; [13]): 75
Plant response rating, Waterhemp (waterhemp; [20]): 80
Plant response rating, Velvetleaf (velvetleaf; [16]): 0
Plant response rating, Velvetleaf (velvetleaf; [17]): 15
Plant response rating, Velvetleaf (velvetleaf; [18]): 20
Plant response rating, Velvetleaf (velvetleaf; [19]): 40
Velvetleaf plant response rating (velvetleaf; [13]): 35
Plant response rating, Velvetleaf (velvetleaf; [20]): 55
